Results: patent US11104883B2, “SC-beta cells and compositions and methods for generating the same” (President and Fellows of Harvard College, priority 2013, dated 2021)

Key:
SC-β cells [1] = experiment: Anti-diabetic drug treatment of plated SC-β cells, secreted human insulin ELISA; assay type: cell-based; conditions: 2 and 20 mM glucose
Protocol: FIG. 16A is a schematic illustration of the utility of SC-β cells for treating diabetes or screening drugs to improve function or replication. FIG. 16B is a table listing diabetic drugs investigated and their general therapeutic category. FIG. 16C is a graph showing ELISA measurements of secreted human insulin from plated SC-β cells treated with the indicated drugs in 2 and 20 mM glucose. Indicated p values compare the insulin value in 20 mM glucose between the drug and the control. FIG. 16D is an immunofluorescence image of dispersed and plated SC-β cells stained with DAPI (blue), C-peptide (green), and Ki67 (red) without treatment. FIG. 16E is an immunofluorescence image of dispersed and plated SC-β cells stained with DAPI (blue), C-peptide (green), and Ki67 (red) treated with prolactin for 48 hours. […] FIG. 16G is a graph illustrating fasting blood glucose measurements of Akita mice transplanted with SC-β cells (n=6) or PH cells (n=6). *p<0.05 comparing the two cell groups on the same day. FIG. 16H is a graph illustrating blood glucose measurements from progressively diabetic Akita mice transplanted with SC-β cells or PH cells. Measurements were taken before (white bars) and 20 min after (black bars) a glucose injection of mice transplanted 2 weeks prior. Glucose measurements were saturated at 550 mg/dL. *p<0.05 comparing the two cell groups at the same time post glucose injection. FIG. 16I is a graph showing ELISA measurements of human insulin from the serum of Akita mice 20 min after a glucose injection. Mice were challenged with glucose 2 weeks post transplantation. *p<0.05 comparing the two cell groups. Scale bar-50 μm.
The inventors first tested whether SC-β cells could respond to existing anti-diabetic drugs from several different classes (FIG. 16B). LY2608204 is glucokinase activator in clinical trials while liraglutide, tolbutamide, and nateglinide are examples of GLP-1 agonists and secretagogues (sulfonylureas and meglitinides), respectively, that have been used clinically (Matschinsky, 2009; Modi, 2007; Vetere et al., 2014).

cells in Steps 3-6 = experiment: Modified differentiation protocol (Steps 3-6): cell survival and marker-positive populations; assay type: cell-based, human; conditions: for cell survival: Steps 3-5
Description: FIG. 15A is a schematic illustration of the protocol.
One challenge for the stem cell field has been generating a sufficient quantity of SC-β cells that can be useful for drug screening, disease modeling, or therapeutic use. For example, hES cells are technically difficult to culture, are vulnerable to apoptosis upon cellular detachment and dissociation, undergo massive cell death particularly after complete dissociation, and have low cloning efficiency. (Watanabe, K. et al., Nature Biotechnology 25, 681-686 (2007)). As a result, the quantity of viable SC-β cells yielded may be low. By modify the protocol between Steps 3 and 6 in the manner shown in FIG. 15A, more pure NKX6.1+ endocrine clusters can be generated (FIG. 15B) leading to more SC-β cells that can be therapeutically useful.
In Steps 3-5, for instance, cell survival can be improved by adding a rho-associated protein kinase inhibitor, or a Rock inhibitor. It is believed that the addition of a Rock inhibitor enhances survival of ES cells by preventing dissociation-induced apoptosis thus increasing their cloning efficiency. (Watanabe et al.) Examples of Rock inhibitors include, but are not limited to, Y-27632, Fasudil/HA1077, and H-1152.
In addition to treating the cells with a Rocki inhibitor, the cells in Steps 3-4 can be treated with ActivinA alone or in combination with Nicotinamide. […] Since SOX2 and NKX6-1 are mutually exclusive (FIG. 15E), down-regulation of SOX2 results in the up-regulation of NKX6-1, a marker for a mature pancreatic cell.
In Steps 5-6, cell survival can further be enhanced by treating cells with staurosporine. Staurosporine is known to be an activator of neuronal, glial, and stem cell-like neurosphere differentiation and is also thought to induce apoptosis. (Schumacher, et al., Mol. Cell. Neurosci. 2003; 23(4): 669-680).
Finally, cell survival can further be enhanced by treating cells with a culture medium containing Alk5i, T3 in combination with XXI, a γ-secretase inhibitor that improves β cell maturation.

SC-β cells [2] = experiment: GSIS of SC-β cells after additional factors in the last-step (Stage 6) media; assay type: cell-based, human; conditions: factor added to CMRL media containing Alk5 inhibitor and T3 hormone; versus CMRL only, CMRL+Alk5i+T3, S3+Alk5i+T3
Description: To induce the in vitro maturation of at least some of the Pdx1-positive, NKX6-1-positive, insulin-positive endocrine cells into SC-β cells, the Pdx1-positive, NKX6-1-positive, insulin-positive endocrine cells are maintained in a suitable culture medium for a sufficient period of time. […] Adding additional factors to the CMRL media at the last step of differentiation (Stage 6) (FIG. 14A), however, was also found to generate a better glucose stimulated insulin secretion (GSIS) response by SC-β cells as measured by either stimulation index between high and low glucose challenges or by the amount of insulin released. Such additional factors may include, but are not limited to, Sant1, XXI, and SSP. The stimulation index, as calculated by the ratio of insulin secreted in high glucose (15 mM) to low glucose (2.5 mM), was greater for the SC-β cells maintained in a CMRL media containing Alk5 inhibitor, T3 hormone and either Sant1, XXI or SSP than those SC-β cells maintained in only CMRL media, CMRL media containing Alk5 inhibitor and T3 hormone, or S3 media containing Alk5 inhibitor and T3 hormone (FIG. 14B). Furthermore, the amount of insulin secreted was greater for the SC-β cells maintained in a CMRL media containing Alk5 inhibitor, T3 hormone and either Sant1, XXI or SSP than those SC-β cells maintained in only CMRL media, CMRL media containing Alk5 inhibitor and T3 hormone, or S3 media containing Alk5 inhibitor and T3 hormone (FIG. 14C).
Alternatively, Days 21-35: CMRLS+10 μM Alk5i II+1 μM T3+Sant1.
Alternatively, Days 21-35: CMRLS+10 μM Alk5i II+1 μM T3+XXI.
Alternatively, Days 21-35: CMRLS+10 μM Alk5i II+1 μM T3+SSP.

SC-β cells [3] = experiment: β cell replication: C-peptide and Ki67 staining of plated SC-β cells; assay type: cell-based, human; conditions: SC-β cells treated with prolactin for 48 hours
Protocol: FIG. 16A is a schematic illustration of the utility of SC-β cells for treating diabetes or screening drugs to improve function or replication. FIG. 16B is a table listing diabetic drugs investigated and their general therapeutic category. FIG. 16C is a graph showing ELISA measurements of secreted human insulin from plated SC-β cells treated with the indicated drugs in 2 and 20 mM glucose. Indicated p values compare the insulin value in 20 mM glucose between the drug and the control. FIG. 16D is an immunofluorescence image of dispersed and plated SC-β cells stained with DAPI (blue), C-peptide (green), and Ki67 (red) without treatment. FIG. 16E is an immunofluorescence image of dispersed and plated SC-β cells stained with DAPI (blue), C-peptide (green), and Ki67 (red) treated with prolactin for 48 hours. […] FIG. 16G is a graph illustrating fasting blood glucose measurements of Akita mice transplanted with SC-β cells (n=6) or PH cells (n=6). *p<0.05 comparing the two cell groups on the same day. […]
Cells were dispersed and plated onto 96 well plates. […] The percentage of target cell-types was quantified using the Array Scan Cellomics high-content screening system. Here 30 images were acquired per well and quantified. Cells labeled by antibody staining and total cell number (based on DAPI nuclei staining) were quantified to obtain percentages of target cell types.

Molecule: O=C(Nc1ncc(SCCN2CCCC2)s1)[C@]1(c2ccc(S(=O)(=O)C3CC3)cc2)C[C@H]1C1CCCCC1 [LY2608204]
- insulin secretion in vitro following a glucose challenge (SC-β cells [1]): increasing insulin secretion

Molecule: NC(=O)c1cccnc1 [Nicotinamide]
- cell survival (cells in Steps 3-6): improve cell survival

Molecule: Cc1nn(-c2ccccc2)c(C)c1/C=N/N1CCN(Cc2ccccc2)CC1 [Sant1]
- amount of insulin secreted (SC-β cells [2]): greater
- stimulation index, ratio of insulin secreted in high glucose (15 mM) to low glucose (2.5 mM) (SC-β cells [2]): greater

Molecule: C[C@H](NC(=O)Cc1cc(F)cc(F)c1)C(=O)N[C@H]1N=C(c2ccccc2)c2ccccc2N(C)C1=O [XXI]
- amount of insulin secreted (SC-β cells [2]): greater
- stimulation index, ratio of insulin secreted in high glucose (15 mM) to low glucose (2.5 mM) (SC-β cells [2]): greater
- NeuroD1+ population (cells in Steps 3-6; added to medium with Alk5i and T3 at Steps 5 and 6): increase the NeuroD1+ population

Molecule: CC(C)[C@H]1CC[C@H](C(=O)N[C@H](Cc2ccccc2)C(=O)O)CC1 [nateglinide]
- insulin secretion in vitro following a glucose challenge (SC-β cells [1]): increasing insulin secretion

Molecule: CN[C@@H]1C[C@H]2O[C@@](C)([C@@H]1OC)n1c3ccccc3c3c4c(c5c6ccccc6n2c5c31)C(=O)NC4 [staurosporine]
- percentage of ChromograninA (cells in Steps 3-6; Steps 5-6): increasing the percentage of ChromograninA
- percentage of NKX6-1/C-peptide+ cells (cells in Steps 3-6; Steps 5-6): increasing the percentage of NKX6-1.C-peptide+ cells

Molecule: CCCCNC(=O)NS(=O)(=O)c1ccc(C)cc1 [tolbutamide]
- insulin secretion in vitro following a glucose challenge (SC-β cells [1]): increasing insulin secretion

B1: prolactin: hormone tested for β cell replication (protein, UniProt P01236 29-227, looked up)
Prolactin: LPICPGGAARCQVTLRDLFDRAVVLSHYIHNLSSEMFSEFDKRYTHGRGFITKAINSCHTSSLATPEDKEQAQQMNQKDFLSLIVSILRSWNEPLYHLVTEVRGMQEAPEAILSKAVEIEEQTKRLLEGMELIVSQVHPETKENEIYPVWSGLPSLQMADEESRLSAYYNLLHCLRRDSHKIDNYLKLLKCRIIHNNNC
- Ki67+/C-peptide+ cells (SC-β cells [3]): 0.39±0.08%

B2: Activin A: growth factor from the TGF-β superfamily (protein, UniProt P08476 311-426, looked up)
Inhibin beta A chain: GLECDGKVNICCKKQFFVSFKDIGWNDWIIAPSGYHANYCEGECPSHIAGTSGSSLSFHSTVINHYRMRGHSPFANLKSCCVPTKLRPMSMLYYDDGQNIIKKDIQNMIVEECGCS
modifications: Inhibin beta A chain
notes: growth factor from the TGF-β superfamily
- cell survival (cells in Steps 3-6): improve cell survival
